Experimental data taken from patent US20080269326A1, “Use of 1-Phenyl-3-Dimethylamino-propane Compounds for Treating Neuropathic Pain” (GRUENENTHAL GmbH, priority 2007, published 2008).
Several values for one entry are separate records, joined by “and”; a condition that tells them apart may be missing. Identical values can stand only once.

Assays:
Format in all cases: in vivo, rat
[1] = system: cold allodynia in morphine-tolerant Bennett animals; assay: Bennett model cold allodynia in morphine-tolerant animals
Experimental: Sprague-Dawley rats weighing 140-160 g are provided with four loose ligatures of the right sciatic nerve under nembutal narcosis. The animals develop a hypersensitivity in the paw innervated by the damaged nerve, which after a healing phase of one week is quantified over about four weeks by means of a 4° C. cold metal plate (cold allodynia). The animals are observed for two minutes on this plate and the number of retractive movements of the damaged paw are measured. The effect of the substance is determined with reference to the base value before application of the substance, at four different times over a period of one hour(15, 30, 45 and 60 minutes after application) and the resultant area under the curve (AUD) as well as the inhibition of cold allodynia at the individual measurement points is expressed in percent effect with reference to the vehicle control (AUD) and to the initial value (individual measurement points). The cohort size is n=10.
The underlying question is the action of a test substance having a presumably opioid action mechanism in patients who are tolerant or treatment-resistant to morphine. […] The action of test substances in naive (non-morphine-tolerant) animals and morphine-tolerant animals is compared in Table 4. […] Morphine [10 mg/kg i.p.], Compound 9 [10 and 21.5 mg/kg i.p.], Compound 10 [0.46 and 1 mg/kg i.p.], Compound 4 [21.5 mg/kg i.p.] and Compound 11 [21.5 mg/kg i.p.] were tested analogously to Example 1.

[2] = system: mononeuropathic pain, withdrawal threshold of rear paw; assay: Mononeuropathy (spinal nerve ligature, SNL), withdrawal threshold by electronic von Frey filament
Experimental: (§1) Male Sprague Dawley rats (140-180g, Janvier, France) are kept under standard conditions (06.00-18.00 hours light, 18.00-06.00 hours darkness; 20°-24° C. room temperature; 35-70% relative atmospheric humidity, tap water and standard feed as desired) in groups of five animals in Macrolon type 4 cages.
Under pentobarbital narcosis (Narcoren, 60 mg/kg i.p., Merial GmbH, Germany) the spinal nerves L5 and L6 are tightly bound unilaterally on the left side with a silk thread (NC silk black, USP 5/0, metric 1, Braun Melsungen A G, Germany) (Kim and Chung, Pain 1992; 50: 355-63). After the operation the animals were allowed to recover for one week and within this time developed a hypersensitivity on the ipsilateral (left) paw. The hypersensitivity to a pressure stimulus can be measured using an electronic von Frey filament (Somedic, Sweden). For this purpose the animals are placed on a grating under a hood. After the animals became accustomed to the surroundings the damaged (ipsilateral, left) and undamaged (contralateral, right) rear paws are subjected to increasing pressure on the underside of the paw until the animal tries to retract the corresponding paw. The median value of five tests defines the withdrawal threshold of a test time point. The animals are tested on both rear paws before and at various times after administration of the substance or vehicle. For each animal the difference between the test value and pre-test for the ipsilateral and contralateral side is determined, and the result is expressed as the mean value (MW) and standard error of the mean (SEM) for the groups consisting in each case of 10 animals. The difference between the mean difference values of the ipsilateral and contralateral side defines the hypersensitivity induced by mononeuropathy. The statistical significance of the effect of a substance is determined on the basis of the difference values compared to the vehicle group for the ipsilateral and contralateral side, by means of bifactorial variance analysis and post hoc analysis according to Bonferroni.

[3] = system: polyneuropathic pain, withdrawal threshold of rear paw; assay: Polyneuropathy (streptozotocin-induced diabetic neuropathy, STZ), withdrawal threshold by Randall and Selitto
Experimental: as §1
Rats receive a single i.p. dose of Streptozotocin (STZ, Sigma Aldrich Chemie, Germany) or vehicle (0.1 mM citrate buffer, pH 4.6). After one week the blood sugar values are determined and animals treated with STZ that have a blood sugar value of ≧17 mM are classed as diabetic in the experiment. Diabetic animals develop a hypersensitivity in the rear paws. The hypersensitivity to a pressure stimulus can be measured using a pressure pain instrument (algesiometer; Ugo Basile, Italy) according to the method of Randall and Selitto (Arch. Int. Pharmcodyn. 1957; 111: 409-19) in diabetic animals compared to healthy control animals of the same weight, in the third week after STZ treatment. After the animals had become accustomed to the surroundings, the rear right paw of damaged (diabetic) and undamaged (healthy) animals was subjected to increasing pressure on the upper side of the paw until the corresponding paw is withdrawn or the animal gives a vocal response. This value defines the withdrawal threshold of a test time point. Diabetic and healthy animals are tested before and at various times after administration of the substance or vehicle. For each animal the difference between the test value and pre-test is determined, and for the groups, each consisting of ten animals, the result is expressed as the mean value (MW) and standard error of the mean (SEM). The difference between the mean difference values of the diabetic and healthy animals defines the polyneuropathy-induced hypersensitivity. The statistical significance of the effect of a substance is determined on the basis of the difference values with respect to the vehicle group for diabetic and healthy animals by means of bifactorial variance analysis and post hoc analysis according to Bonferroni.

`CC[C@@H](c1cccc(O)c1)[C@@H](C)CN(C)C` [Compound 9, (1R,2R)-3-(3-dimethylamino-1-ethyl-2-methylpropyl)-phenol] was tested. Which “Cold allodynia (% AUD) Morphine-tolerant animals” value ([1]; 10 mg/kg i.p.) did it give?
Its value is 37.3 % AUD.

What about the “Cold allodynia (% AUD) Morphine-tolerant animals” value ([1]; 21.5 mg/kg i.p.) of the same compound?
Its value is 36.7 % AUD.

And the “withdrawal threshold, test value - pre-test value (MW)” value (“withdrawal threshold, test value” for short) ([2]; 0.1 mg/kg i.v., Contra, 30 min)?
Its value is 0.06 g.

What about the “withdrawal threshold, test value” value ([2]; 0.1 mg/kg i.v., Contra, 60 min) of the same compound?
Its value is -3.13 g.

What about the “withdrawal threshold, test value” value ([2]; 0.1 mg/kg i.v., Contra, 180 min) of the same compound?
The value was -4.30 g.

What about the “withdrawal threshold, test value” value ([2]; 0.1 mg/kg i.v., Ipsi, 30 min) of the same compound?
The value was 1.74 g.

And the “withdrawal threshold, test value” value ([2]; 0.1 mg/kg i.v., Ipsi, 60 min)?
The value was -0.59 g.

What about the “withdrawal threshold, test value” value ([2]; 0.1 mg/kg i.v., Ipsi, 180 min) of the same compound?
Its value is -2.24 g.

And the “withdrawal threshold, test value” value ([2]; 0.316 mg/kg i.v., Contra, 30 min)?
The value was 0.39 g.

And the “withdrawal threshold, test value” value ([2]; 0.316 mg/kg i.v., Contra, 60 min)?
Its value is “ta −6.20 g”.

And the “withdrawal threshold, test value” value ([2]; 0.316 mg/kg i.v., Contra, 180 min)?
The value was 2.21 g.

And the “withdrawal threshold, test value” value ([2]; 0.316 mg/kg i.v., Ipsi, 30 min)?
The value was 5.78 g.

What about the “withdrawal threshold, test value” value ([2]; 0.316 mg/kg i.v., Ipsi, 60 min) of the same compound?
Its value is 2.21 g.

What about the “withdrawal threshold, test value” value ([2]; 0.316 mg/kg i.v., Ipsi, 180 min) of the same compound?
Its value is 1.68 g.

And the “withdrawal threshold, test value” value ([2]; 1 mg/kg i.v., Contra, 30 min)?
The value was 2.90 g.

And the “withdrawal threshold, test value” value ([2]; 1 mg/kg i.v., Contra, 60 min)?
The value was 2.45 g.

And the “withdrawal threshold, test value” value ([2]; 1 mg/kg i.v., Contra, 180 min)?
Its value is -6.65 g.

What about the “withdrawal threshold, test value” value ([2]; 1 mg/kg i.v., Ipsi, 30 min) of the same compound?
Its value is 12.86 g.

What about the “withdrawal threshold, test value” value ([2]; 1 mg/kg i.v., Ipsi, 60 min) of the same compound?
Its value is 7.09 g.

What about the “withdrawal threshold, test value” value ([2]; 1 mg/kg i.v., Ipsi, 180 min) of the same compound?
Its value is 2.01 g.

And the “withdrawal threshold, test value” value ([2]; 3.16 mg/kg i.v., Contra, 30 min)?
The value was 8.02 g.

And the “withdrawal threshold, test value” value ([2]; 3.16 mg/kg i.v., Contra, 60 min)?
Its value is 2.85 g.

And the “withdrawal threshold, test value” value ([2]; 3.16 mg/kg i.v., Contra, 180 min)?
The value was -0.34 g.

What about the “withdrawal threshold, test value” value ([2]; 3.16 mg/kg i.v., Ipsi, 30 min) of the same compound?
The value was 18.43 g.

What about the “withdrawal threshold, test value” value ([2]; 3.16 mg/kg i.v., Ipsi, 60 min) of the same compound?
The value was 20.32 g.

What about the “withdrawal threshold, test value” value ([2]; 3.16 mg/kg i.v., Ipsi, 180 min) of the same compound?
The value was 11.06 g.

What about the “withdrawal threshold, test value” value ([2]; 10 mg/kg i.v., Contra, 30 min) of the same compound?
The value was 31.85 g.

What about the “withdrawal threshold, test value” value ([2]; 10 mg/kg i.v., Contra, 60 min) of the same compound?
The value was 10.62 g.

And the “withdrawal threshold, test value” value ([2]; 10 mg/kg i.v., Contra, 180 min)?
The value was 4.51 g.

What about the “withdrawal threshold, test value” value ([2]; 10 mg/kg i.v., Ipsi, 60 min) of the same compound?
The value was “[drawing 7] 19.47 g”.

What about the “withdrawal threshold, test value” value ([2]; 10 mg/kg i.v., Ipsi, 180 min) of the same compound?
Its value is 13.65 g.

And the “inhibition of the mononeuropathically-induced withdrawal threshold reduction” value ([2]; 10 mg/kg i.v., after 30 minutes, ipsilateral)?
Its value is “full inhibition”.

What about the “statistically significant minimal effective dose” value ([2]; i.v., contralateral withdrawal threshold) of the same compound?
Its value is 10 mg/kg.

What about the “statistically significant minimal effective dose” value ([2]; i.v., ipsilateral rear paw, mononeuropathic rats) of the same compound?
Its value is 1 mg/kg.

What about the “dosage at which complete inhibition is reached” value ([2]; i.v., mononeuropathic pain model) of the same compound?
The value was 10 mg/kg.

And the “withdrawal threshold, test value” value ([3]; 0.1 mg/kg i.v., Diabetes, 15 min)?
The value was 1.0 g.

And the “withdrawal threshold, test value” value ([3]; 0.1 mg/kg i.v., Diabetes, 30 min)?
Its value is -2.0 g.

What about the “withdrawal threshold, test value” value ([3]; 0.1 mg/kg i.v., Diabetes, 45 min) of the same compound?
Its value is 6.0 g.

And the “withdrawal threshold, test value” value ([3]; 0.1 mg/kg i.v., Diabetes, 60 min)?
Its value is -2.0 g.

And the “withdrawal threshold, test value” value ([3]; 0.1 mg/kg i.v., Naive, 15 min)?
Its value is 4.0 g.

What about the “withdrawal threshold, test value” value ([3]; 0.1 mg/kg i.v., Naive, 30 min) of the same compound?
Its value is -12.0 g.

What about the “withdrawal threshold, test value” value ([3]; 0.1 mg/kg i.v., Naive, 45 min) of the same compound?
Its value is -2.0 g.

What about the “withdrawal threshold, test value” value ([3]; 0.1 mg/kg i.v., Naive, 60 min) of the same compound?
The value was -5.0 g.

And the “withdrawal threshold, test value” value ([3]; 0.316 mg/kg i.v., Diabetes, 15 min)?
Its value is 35.0 g.

What about the “withdrawal threshold, test value” value ([3]; 0.316 mg/kg i.v., Diabetes, 30 min) of the same compound?
The value was 30.0 g.

And the “withdrawal threshold, test value” value ([3]; 0.316 mg/kg i.v., Diabetes, 45 min)?
The value was 24.0 g.

What about the “withdrawal threshold, test value” value ([3]; 0.316 mg/kg i.v., Diabetes, 60 min) of the same compound?
Its value is 16.0 g.

And the “withdrawal threshold, test value” value ([3]; 0.316 mg/kg i.v., Naive, 15 min)?
Its value is 17.0 g.

And the “withdrawal threshold, test value” value ([3]; 0.316 mg/kg i.v., Naive, 30 min)?
Its value is -5.0 g.

What about the “withdrawal threshold, test value” value ([3]; 0.316 mg/kg i.v., Naive, 45 min) of the same compound?
Its value is -5.0 g.

And the “withdrawal threshold, test value” value ([3]; 0.316 mg/kg i.v., Naive, 60 min)?
The value was 2.0 g.

What about the “withdrawal threshold, test value” value ([3]; 1 mg/kg i.v., Diabetes, 45 min) of the same compound?
Its value is 34.0 g.

And the “withdrawal threshold, test value” value ([3]; 1 mg/kg i.v., Diabetes, 60 min)?
The value was 27.0 g.

And the “withdrawal threshold, test value” value ([3]; 1 mg/kg i.v., Naive, 15 min)?
Its value is 42.0 g.

What about the “withdrawal threshold, test value” value ([3]; 1 mg/kg i.v., Naive, 30 min) of the same compound?
The value was 28.0 g.

What about the “withdrawal threshold, test value” value ([3]; 1 mg/kg i.v., Naive, 45 min) of the same compound?
The value was -2.0 g.

And the “withdrawal threshold, test value” value ([3]; 1 mg/kg i.v., Naive, 60 min)?
The value was 7.0 g.

And the “inhibition of the polyneuropathically-induced withdrawal threshold reduction” value ([3]; 1 mg/kg i.v., after 15 minutes and 30 minutes, diabetic animals)?
Its value is “complete inhibition”.

What about the “statistically significant minimal effective dose” value ([3]; i.v., healthy control animals) of the same compound?
The value was 1 mg/kg.

What about the “dosage at which complete inhibition is reached” value ([3]; i.v., polyneuropathic pain model) of the same compound?
Its value is 1 mg/kg.

What about the “statistically significant minimal effective dose” value ([3]; i.v., rear paw of diabetic rats) of the same compound?
Its value is 0.316 mg/kg and 0.3 mg/kg.
